The subject of data set [1] is Sarcoma 180 tumors. The data set can be described thus: Therapeutic index (LD50/ED90), implanted Sarcoma 180 tumors. It counts as in vivo, Swiss white mice. The arrangement: ED90: unit not given here. To be noted: for Maximum % ILS (Dosage): S 180 ascites, 20 mg/kg; for ED90: dose giving 50% increase in life span for 90% of the animals, determined graphically.
For data set [2], the system named is S180 ascites. The data set is described as follows: Anti-tumor evaluation against S180 ascites in mice (% increase in life span, survivors). Format: in vivo, female CFW Swiss mice. To be noted: for % ILS / Survivors / Anti-tumor activity (in words): S 180 ascites; for Survivors: day of evaluation; for Anti-tumor activity (in words): 50% ILS criterion; for % ILS against criterion for anti-tumor activity: failed to meet the 50% ILS criterion. As to the method:
The above prepared compounds were evaluated against S180 ascites in female CFW Swiss mice. The mice were weighed (average weight: 20 g), placed into cages (six mice to a cage) and on day zero the mice were inoculated with 0.2 ml of a freshly prepared saline suspension (0.15 M NaCl) containing 1×10^7 tumor cells/ml or a total of 2×10^6 cells. This inoculum was freshly prepared using "transfer" mice which had been injected with tumor cells the previous week; it was obtained via the following steps: (1) the removal of cells from the peritoneal cavity of the sacrificed transfer mouse, (2) alternate centrifugation and washing operations (2-3 times with cold saline) to remove blood and other components, and (3) dilution of the volume of the packed cell with saline (1:3). A final centrifugation was carried out at 1000 RPM over a two minute period. A cell count was made on a 2,000-fold dilution of this 1:3 suspension by means of a Coulter Counter. A final dilution to 1×10^7 cells/ml was made based on the average count.
On day 1, solutions of the test compounds were prepared and each mouse in a set of six were injected with the same test compound at the same dosage. The doses were based on the average weight of the animals (cage weight). Also, beginning on day 1 two controls were employed containing six mice per control:
(1) Normal Control: This consisted solely of the carrier or diluent used in combination with the test compound; and
(2) Positive Control: This consisted solely of the known anti-tumor agent cis-[Pt(NH3)2 Cl2 ] (Cisplatin) in saline (8 mg/kg) to test the response of the biological system.
The effectiveness of a test compound was measured in terms of the % increase in life span (%ILS) of the test mice relative to the Normal Control (Calculated from the day of tumor inoculation, i.e., day zero). To standardize the test data and permit intercomparisons, the day of evaluation was arbitrarily taken as that day corresponding to twice the mean life span (or average day of death) of the control. This established a practical upper limit of 100% on the %ILS attainable. For calculation purposes the survivors on the day of evaluation were considered to have died on that day. The %ILS was calculated as follows: [formula] ILS values in excess of 50% were interpreted as being indicative of anti-tumor activity, whereas, values in excess of 75% indicated excellent activity.
The products of Examples 1, 4, 10 and 11 were administered in a freshly prepared 1% sodium bicarbonate solution; the remaining test compounds were administered as slurries in 0.5% "Klucel" (hydroxypropylcellulose).

Data set [3] is described as follows: Solubility. Format: physicochemical.

Consider `[Cl][Au]([Cl])[Cl].c1ccncc1` [Example 7, trichloro(pyridine)gold(III)], for which the “Maximum % ILS (Dosage)” value in data set [1] turned out to be 71%. The molecule further yielded an ED90 in data set [1] of 35. The “% ILS” value was 45% in data set [2] (10 mg/kg); 71% in data set [2] (20 mg/kg); 66% in data set [2] (40 mg/kg); -6% in data set [2] (80 mg/kg); -94% in data set [2] (160 mg/kg); -94% in data set [2] (320 mg/kg). Also, the Survivors in data set [2] (10 mg/kg) is on record as 3 of 6; in data set [2] (20 mg/kg) it was 2 of 6; in data set [2] (40 mg/kg), 3 of 6; in data set [2] (80 mg/kg), 2 of 6; in data set [2] (160 mg/kg), 0 of 6; in data set [2] (320 mg/kg) it was 0 of 6.

For the molecule `[Cl][Au-]([Cl])([Cl])[n+]1cc[nH]c1` [Example 8, trichloro(imidazole)gold(III)], the “% ILS” value in data set [2] (5 mg/kg) was 5%; in data set [2] (10 mg/kg), -7%; in data set [2] (20 mg/kg), 1%; in data set [2] (40 mg/kg), -16%; in data set [2] (80 mg/kg), 37%; in data set [2] (160 mg/kg), 37%. In addition, the Survivors in data set [2] (5 mg/kg) is given as 0 of 6; in data set [2] (10 mg/kg) it was 0 of 6; in data set [2] (20 mg/kg), 1 of 6; in data set [2] (40 mg/kg), 0 of 6; in data set [2] (80 mg/kg), 1 of 6; in data set [2] (160 mg/kg) it was 2 of 6. For the same molecule, the “Anti-tumor activity (in words)” value in data set [2] was “considered to be inactive”; in data set [2] (listed as trichloro(imidazole)gold(III)), “inactive in bringing about a regression of S 180 ascites at all doses tested”. Moreover, the “% ILS against criterion for anti-tumor activity” value in data set [2] is recorded as less than 50%.

Consider `Cn1cc[n+]([Au-]([Br])([Br])[Br])c1` [Example 9, Tribromo(N-Methylimidazole)Gold(III)], for which the “Therapeutic Index” value in data set [1] (LD50/ED90) was 2.0. In addition, the “Maximum % ILS (Dosage)” value in data set [1] is on record as 76%. In data set [1], this molecule came in with an ED90 of 42. Moreover, the “% ILS” value in data set [2] (10 mg/kg) is given as 5%; in data set [2] (20 mg/kg), 76%; in data set [2] (40 mg/kg), 66%; in data set [2] (80 mg/kg), -1%; in data set [2] (160 mg/kg) it was -94%; in data set [2] (320 mg/kg), -94%. For the same molecule, the Survivors is on record as 0 of 6 in data set [2] (10 mg/kg); 4 of 6 in data set [2] (20 mg/kg); 3 of 6 in data set [2] (40 mg/kg); 1 of 6 in data set [2] (80 mg/kg); 0 of 6 in data set [2] (160 mg/kg); 0 of 6 in data set [2] (320 mg/kg).

With `O=C(O)c1ccc[n+]([Au-]([Br])([Br])[Br])c1` [Example 10], the “solubility in 1% sodium bicarbonate solution” value in data set [3] came out at 12.8 mg/mL. In addition, the “% ILS” value in data set [2] (10 mg/kg) was -23%; in data set [2] (20 mg/kg) it was 26%; in data set [2] (40 mg/kg) it was 64%; in data set [2] (80 mg/kg), 49%; in data set [2] (160 mg/kg), -19%; in data set [2] (320 mg/kg) it was -95%. Further, the Survivors in data set [2] (10 mg/kg) was 0 of 6; in data set [2] (20 mg/kg), 0 of 6; in data set [2] (40 mg/kg), 2 of 6; in data set [2] (80 mg/kg), 0 of 6; in data set [2] (160 mg/kg) it was 0 of 6; in data set [2] (320 mg/kg) it was 0 of 6.

Turning to `O=C(O)Cc1ccc[n+]([Au-]([Br])([Br])[Br])c1` [Example 11, tribromo(3-pyridylacetic acid)gold(III)], the “solubility in 1% sodium bicarbonate solution” value in data set [3] came out at 12.8 mg/mL. Besides, the “% ILS” value in data set [2] (10 mg/kg) is -16%; in data set [2] (20 mg/kg), 20%; in data set [2] (40 mg/kg), 10%; in data set [2] (80 mg/kg) it was 31%; in data set [2] (160 mg/kg) it was -21%; in data set [2] (320 mg/kg), -92%. Also, the Survivors is on record as 0 of 6 in data set [2] (10 mg/kg); 0 of 6 in data set [2] (20 mg/kg); 0 of 6 in data set [2] (40 mg/kg); 1 of 6 in data set [2] (80 mg/kg); 0 of 6 in data set [2] (160 mg/kg); 0 of 6 in data set [2] (320 mg/kg). For the same molecule, the “Anti-tumor activity (in words)” value in data set [2] is “considered to be inactive”; in data set [2] (listed as tribromo(3-pyridylacetic acid)gold(III)) it was “inactive as an anti-tumor agent”. Besides, the “% ILS against criterion for anti-tumor activity” value in data set [2] is less than 50%.

The values are drawn from patent publication US4921847A, “Trihalo(amine)gold(III) anti-tumor complexes” (Engelhard Corporation, priority 1989, dated 1990).
